# Reference: publication PMC7069944, “Amino acid levels determine metabolism and CYP450 function of hepatocytes and hepatoma cell lines” (Nature Communications, 2020)
# “And” between values parts separate entries of the source, which are not always exact repeats. Identical values can stand only once.
# Experiments:
# HC6X = experiment: Repeated-exposure DILI training compounds, resazurin conversion, HC6X
# Description: (§1) To evaluate the ability to predict hepatotoxicity, we adapted the differentiation assays to a 384-well format. […] As a readout, we evaluated cell viability by resazurin conversion and correlated the results to therapeutic doses (Cmax values).
# (§2) PSCs were differentiated in a 384-well format. […] As a negative control, 41 wells were left untreated. HepG2 were seeded at 40,000 cells per well. […] Cells were fixed with 4% PFA. […] Drugs were administrated after 8 h of attachment.
# HepG2 = experiment: Repeated-exposure DILI training compounds, resazurin conversion, HepG2
# Description: as §1, §2
# HC3X = experiment: Repeated-exposure DILI training compounds, resazurin conversion, HC3X; conditions: HC3X AAGLY D40
# Description: as §1, §2
# HLC = experiment: Repeated-exposure DILI training compounds, resazurin conversion, HLC
# Description: as §1, §2
compound,measurement,setting,value
CCN(CC)C(=O)/C(C#N)=C/c1cc(O)c(O)c([N+](=O)[O-])c1 [entacapone],"Resazurin conversion, repeated exposure (Supplementary Figure 7D)","HC6X; HC6X AAGLY D40, 10 uM",116.9 and 68.5 and 106.9 and 88.2 and 63 and 119.9
same,"Resazurin conversion, repeated exposure (Supplementary Figure 7D)","HC6X; HC6X AAGLY D40, 30 uM",103.2 and 75.2 and 84.6 and 107.4 and 73.5 and 104.8
same,"Resazurin conversion, repeated exposure (Supplementary Figure 7D)","HC6X; HC6X AAGLY D40, 50 uM",71.4 and 61.4 and 89.5 and 66.5 and 69.6 and 76.8
same,"Resazurin conversion, repeated exposure (Supplementary Figure 7D)","HC6X; HC6X AAGLY D40, 100 uM",43.6 and 55 and 60.5 and 66.1 and 44.9 and 64.9
same,"Resazurin conversion, repeated exposure (Supplementary Figure 7D)","HC6X; HC6X AAGLY D40, 300 uM",37.1 and 36.3 and 44.1 and 42.3 and 33.5 and 37.5
same,"Resazurin conversion, repeated exposure (Supplementary Figure 7D)","HC6X; HC6X AAGLY D40, 500 uM",24.4 and 21.6 and 32.3 and 32.9 and 27.4 and 25.1
same,"Resazurin conversion, repeated exposure (Supplementary Figure 7D)","HC6X; HC6X AAGLY D40, 1000 uM",25.5 and 25.3 and 37.2 and 22.8 and 23.6 and 21
same,"Resazurin conversion, repeated exposure (Supplementary Figure 7D)","HC6X; HC6X AAGLY D40, 2000 uM",12 and 11.8 and 15.1 and 12.5 and 11.4 and 12.9
same,"Resazurin conversion, repeated exposure (Supplementary Figure 7D)","HC6X; HC6X AAGLY D40 Remove dox, 10 uM",62.8 and 75.4 and 93.9 and 104.7 and 88.6 and 79.3
same,"Resazurin conversion, repeated exposure (Supplementary Figure 7D)","HC6X; HC6X AAGLY D40 Remove dox, 30 uM",86.2 and 86.6 and 84.6 and 85 and 82.3
same,"Resazurin conversion, repeated exposure (Supplementary Figure 7D)","HC6X; HC6X AAGLY D40 Remove dox, 100 uM",87.4 and 81.5 and 70.5 and 95.4 and 102 and 63.6
same,"Resazurin conversion, repeated exposure (Supplementary Figure 7D)","HC6X; HC6X AAGLY D40 Remove dox, 300 uM",89.2 and 80.7 and 67.2 and 48.2 and 75.7 and 47.5
same,"Resazurin conversion, repeated exposure (Supplementary Figure 7D)","HC6X; HC6X AAGLY D40 Remove dox, 2000 uM",43.7 and 44 and 38.6 and 66.6 and 63.4 and 64.5
same,"Resazurin conversion, repeated exposure (Supplementary Figure 7D)","HepG2; HepG2 AAGLY D30, 10 uM",102.7 and 108.3 and 96.3 and 95.5 and 95.9 and 100.8
same,"Resazurin conversion, repeated exposure (Supplementary Figure 7D)","HepG2; HepG2 AAGLY D30, 30 uM",105.3 and 123.1 and 95.9 and 95.5 and 94.4 and 98.6
same,"Resazurin conversion, repeated exposure (Supplementary Figure 7D)","HepG2; HepG2 AAGLY D30, 50 uM",152.4 and 137.5 and 121.1 and 116.5 and 124.4 and 119.5
same,"Resazurin conversion, repeated exposure (Supplementary Figure 7D)","HepG2; HepG2 AAGLY D30, 100 uM",127.9 and 149.8 and 134.1 and 127 and 120.4 and 132.2
same,"Resazurin conversion, repeated exposure (Supplementary Figure 7D)","HepG2; HepG2 AAGLY D30, 300 uM",69.6 and 78.3 and 68.3 and 72.6 and 71.7 and 76.3
same,"Resazurin conversion, repeated exposure (Supplementary Figure 7D)","HepG2; HepG2 AAGLY D30, 500 uM",44.9 and 57 and 46.8 and 54.7 and 52.8 and 66
same,"Resazurin conversion, repeated exposure (Supplementary Figure 7D)","HepG2; HepG2 AAGLY D30, 1000 uM",37.4 and 37.7 and 35.2 and 41.1 and 43.2 and 46
same,"Resazurin conversion, repeated exposure (Supplementary Figure 7D)","HepG2; HepG2 AAGLY D30, 2000 uM",19.3 and 22.6 and 21.6 and 20.1 and 20.8
same,"Resazurin conversion, repeated exposure (Supplementary Figure 7D)","HepG2; HepG2 AAGLY D30, 4000 uM",12.5 and 14.6 and 13 and 12.9 and 13.1 and 20.4
same,"Resazurin conversion, repeated exposure (Supplementary Figure 7D)","HepG2; HepG2 CTL D7, 10 uM",93.9
same,"Resazurin conversion, repeated exposure (Supplementary Figure 7D)","HepG2; HepG2 CTL D7, 30 uM",102.5 and 112.8 and 108.6 and 134.8 and 127 and 107.9
same,"Resazurin conversion, repeated exposure (Supplementary Figure 7D)","HepG2; HepG2 CTL D7, 50 uM",101.5 and 107.8 and 111.6 and 126.8 and 128.3 and 109
same,"Resazurin conversion, repeated exposure (Supplementary Figure 7D)","HepG2; HepG2 CTL D7, 100 uM",95.8 and 101 and 100.7 and 120.3 and 125.1 and 104.1
same,"Resazurin conversion, repeated exposure (Supplementary Figure 7D)","HepG2; HepG2 CTL D7, 300 uM",67.5 and 62.9 and 68.7 and 80.5 and 91.5 and 70.1
same,"Resazurin conversion, repeated exposure (Supplementary Figure 7D)","HepG2; HepG2 CTL D7, 500 uM",36 and 31.8 and 34.4 and 55.7 and 53 and 36.2
same,"Resazurin conversion, repeated exposure (Supplementary Figure 7D)","HepG2; HepG2 CTL D7, 1000 uM",9.5 and 6.9 and 7.9 and 10.8 and 9.3 and 8.4
same,"Resazurin conversion, repeated exposure (Supplementary Figure 7D)","HepG2; HepG2 CTL D7, 2000 uM",3.6 and 3.2 and 3.7 and 3.8 and 3.4
same,"Resazurin conversion, repeated exposure (Supplementary Figure 7D)","HepG2; HepG2 CTL D7, 4000 uM",2.7 and 2 and 2.5 and 2.9 and 3
same,"Resazurin conversion, repeated exposure (Supplementary Figure 7D)",HC3X; 10 uM,105.5 and 90.3 and 90.2 and 88.2 and 71.2 and 75.6
same,"Resazurin conversion, repeated exposure (Supplementary Figure 7D)",HC3X; 30 uM,115.8 and 62.8 and 93.9 and 99.3 and 81.1 and 63.6
same,"Resazurin conversion, repeated exposure (Supplementary Figure 7D)",HC3X; 50 uM,82.1 and 69.4 and 93.5 and 81.3 and 74.4 and 55.8
same,"Resazurin conversion, repeated exposure (Supplementary Figure 7D)",HC3X; 100 uM,49 and 46.9 and 84.4 and 61.2 and 50.7 and 51.6
same,"Resazurin conversion, repeated exposure (Supplementary Figure 7D)",HC3X; 500 uM,18.2 and 17.1 and 16.8 and 16 and 16.9 and 13.4
same,"Resazurin conversion, repeated exposure (Supplementary Figure 7D)",HC3X; 1000 uM,8.7 and 10.7 and 12.7 and 12.4 and 7.5
same,"Resazurin conversion, repeated exposure (Supplementary Figure 7D)",HC3X; 2000 uM,4 and 3.7 and 3.3 and 2.8 and 3
same,"Resazurin conversion, repeated exposure (Supplementary Figure 7D)",HC3X; 4000 uM,2.3 and 2.9 and 3.3 and 2.8 and 2.6 and 2.4
same,"Resazurin conversion, repeated exposure (Supplementary Figure 7D)","HLC; HLC AAGLY D40, 10 uM",72 and 89.5 and 61.6 and 92.2 and 93.5 and 83.6
same,"Resazurin conversion, repeated exposure (Supplementary Figure 7D)","HLC; HLC AAGLY D40, 30 uM",103.8 and 101.2 and 95.5 and 67.7 and 80.3 and 90.5
same,"Resazurin conversion, repeated exposure (Supplementary Figure 7D)","HLC; HLC AAGLY D40, 50 uM",106.7 and 75.7 and 96.1 and 56 and 97.2 and 93.3
same,"Resazurin conversion, repeated exposure (Supplementary Figure 7D)","HLC; HLC AAGLY D40, 100 uM",90.9 and 65.1 and 97.6 and 81.7 and 65.8 and 91.6
same,"Resazurin conversion, repeated exposure (Supplementary Figure 7D)","HLC; HLC AAGLY D40, 300 uM",81.3 and 79.9 and 79 and 69.8 and 111.3 and 89.9
same,"Resazurin conversion, repeated exposure (Supplementary Figure 7D)","HLC; HLC AAGLY D40, 500 uM",97.3 and 87.8 and 100.8 and 81.9 and 90.2 and 84.4
same,"Resazurin conversion, repeated exposure (Supplementary Figure 7D)","HLC; HLC AAGLY D40, 1000 uM",107 and 95.5 and 86.2 and 93 and 108.2 and 101.5
same,"Resazurin conversion, repeated exposure (Supplementary Figure 7D)","HLC; HLC LDM D40, 10 uM",80.5 and 101.6 and 104.1 and 93.5 and 79.5 and 109
same,"Resazurin conversion, repeated exposure (Supplementary Figure 7D)","HLC; HLC LDM D40, 30 uM",122.3 and 84.7 and 104.1 and 84.4 and 84 and 104
same,"Resazurin conversion, repeated exposure (Supplementary Figure 7D)","HLC; HLC LDM D40, 50 uM",80.6 and 88.8 and 112.5 and 118.1 and 65.6 and 98.1
same,"Resazurin conversion, repeated exposure (Supplementary Figure 7D)","HLC; HLC LDM D40, 100 uM",89.9 and 104.8 and 77.5 and 95.7 and 95.5 and 115.1
same,"Resazurin conversion, repeated exposure (Supplementary Figure 7D)","HLC; HLC LDM D40, 300 uM",108.5 and 82.7 and 104.1 and 95.3 and 63.3 and 100.3
same,"Resazurin conversion, repeated exposure (Supplementary Figure 7D)","HLC; HLC LDM D40, 500 uM",94.1 and 111.1 and 84.2 and 118.9 and 108.7 and 108.4
same,"Resazurin conversion, repeated exposure (Supplementary Figure 7D)","HLC; HLC LDM D40, 1000 uM",72.7 and 101.3 and 78 and 89.4 and 85.4 and 124.1
